Test results as given in US9624491B2, “Methods and compositions for the detection and treatment of cancer involving miRNAs and miRNA inhibitors and targets” (Memorial Sloan Kettering Cancer Center, priority 2010, dated 2017).

Columns and labels:
FL5-12 lymphocytes = assay: IL3 depletion competition assay for cytokine-independent survival of FL5-12 lymphocytes; type: cell-based, murine
Experimental: An established in vitro assay of hematopoietic transformation (Plas, Talapatra, Edinger, Rathmell, & Thompson, 2001) was used to identify the key oncogenic activities within the 17˜92 cluster and its paralogues. All miRNAs representing families of unique seed sequences, specifically miR-17, miR-18a, miR-19b-1 (miR-19), miR-20a, miR-106a, miR-106b and miR-25 were tested (FIG. 1a). The assay is based on the IL3 dependence of FL5-12 lymphocytes, which undergo apoptosis when removed from IL3. In competition experiments, FL5-12 cells were partially transduced with GFP plus individual miRNAs or empty vector and these mixed populations were monitored by fluorescence-activated cell sorting (FACS) for changes in their relative proportions (FIG. 1b).
FL5-12 murine lymphocytes, IL3 depletion studies and viral transductions were as described (Mavrakis, et al., 2008) (Plas, Talapatra, Edinger, Rathmell, & Thompson, 2001). Cell cycle and cell death assays based on uptake of DNA staining dye (LDS751) using Cell cycle and Viacount assays from Guava Technologies were performed as reported (Mavrakis, et al., 2008). The retroviral vectors are based on murine stem cell virus (MSCV) and include the miRNA expression vectors encoding miRs 17, 18a, 19b-1 (miR-19), 106a, 106b, 25 (He, et al., 2005), the vectors encoding Notch-ICN (a gift from W. Pear) (Pear, et al., 1996) and Bcl2 (Wendel, et al., 2004), the individual shRNA vectors (FIG. 17) and the library vector (MRP) (FIGS. 18a and b). miRNA inhibitor oligonucleotides (antagomirs) MZIP19a-PA-1, MZIP19b-PA-1, and scrambled control (MZIP000-PA-1) were from System Biosciences.
The primary screen is based on c-MYC-induced apoptosis in MEFs (Evan, et al., 1992). MEFs were transduced with c-MYC and the miRNA library and cultured in puromycin to select for homogeneous c-MYC expression; apoptosis was triggered by diluting serum from 10% to 0.1%. Surviving cells remained adherent and were collected for DNA isolation, PCR amplification of the integrated miRNA library constructs, sub-cloning into pGEM-T vector, bacterial transformation, and sequence identification of ˜100 colonies. A secondary library was constructed by sub-cloning all miRNAs from the primary screen into an MSCV construct. The secondary screen is based on the IL-3 dependence of FL5-12 lymphocytes in vitro (Mavrakis, et al., 2010), (Plas, Talapatra, Edinger, Rathmell, & Thompson, 2001). FL5-12 cells were partially transduced with the pooled, GFP-tagged library and selected by IL-3 depletion. miRNAs were identified as above. Individual miRNAs were subsequently validated in the same FL5-12 assay and in vivo.

[1] = system: 3′UTR of Pten, Ppp2r5e, Prkaa1 and Bim; assay: Reporter assay for 3′UTR repression by miR-19; type: cell-based; conditions: wild type vs mutated miR-19 binding sites
Description: FIG. 14. Reporter assay for 3′ untranslated region (3′UTR) repression by miR-19. The 3′UTR of the indicated genes was subcloned into a dual luciferase reporter construct (pSiCheck2) and inhibition of the 3′UTR by miR-19 is indicated as mean±SD ratio of Renila to Firefly luciferase activity (RLuc/Luc). WT indicates the wild type 3′UTR. M indicates the 3′UTR where the miR-19 binding site has been mutated. In the case of Pten, one site (M1) or both sites (M1+M2) were mutated [* indicates significant (p<0.05) changes; ** indicates non-significant (p>0.05) changes.]
The Dock5, Ppp2r5e, Prkaa1, and Bim 3′-UTR fragments were generated by PCR and cloned into the psi-CHECK-2 vector (Promega). The assays were performed as described (Xiao, et al., 2008). Binding site mutants were generated by site-directed mutagenesis.

NOTCH1-induced T-ALL = assay: Mouse model of Notch-ICN (NOTCH1)-induced T-ALL, adoptive transfer of transduced HPCs; type: in vivo; conditions: HPCs expressing NOTCH1-ICN plus miRNA or shRNA transplanted into irradiated recipients
Experimental: Can miR-19 drive the development of lymphatic malignancies in vivo? Based on the miR-19 expression and translocation data, miR-19 was assessed in a mouse model of T-ALL (Pear, et al., 1996). Briefly, most cases of T-ALL carry mutations in the Notch1 gene, and, like the […] translocation, these generate the constitutively active intracellular domain of NOTCH1 (Notch-ICN) (Weng, et al., 2004). To test miR-19's ability to promote Notch-ICN-induced T-ALL in vivo, HPCs were adoptively transferred into irradiated recipients (FIG. 3d). […] At the same time, 80% of the mice receiving HPCs expressing only Notch-ICN remained disease free (p=0.0003) (FIG. 3e).
The mouse models of Notch1-induced T-ALL and the EμMyc lymphoma based on adoptive transfer of retrovirally transduced HPCs have been reported (Pear, et al., 1996), (Wendel, et al., 2004). Data were analyzed in Kaplan-Meier format using the log-rank (Mantel-Cox) test for statistical significance. The p53 loss of heterozygosity polymerase chain reaction (LOH PCR) and immunophenotyping by surface marker analysis were as described (Wendel, et al., 2004).
A murine model of NOTCH1-induced T-ALL was used to directly test the oncogenic potential of the most promising miRNAs in vivo. Briefly, HPCs were transduced with NOTCH1 together with either empty vector or an miRNA and transplanted into irradiated, syngeneic recipients. Animals were monitored for leukemia onset by regular blood counts (FIG. 22a). […] Typically, animals receiving HPCs transduced with these miRNAs develop an acute leukemia by 75 days, while >80% of vector controls or animals receiving miR-30 (n=5, p=0.15) remain disease free at this time (FIG. 22b). Based on the in vitro screen and prediction, additional miRNAs were tested. […] Thus, miR-19b, miR-20a, miR-26a, miR-223 and also the less abundant miR-27a and miR-148/152 behave as oncogenes in a murine T-ALL model.
The mouse T-ALL model has been reported (Pear, et al., 1996), (Wendel, et al., 2004). Data were analyzed in Kaplan-Meier format using the log-rank (Mantel-Cox) test for statistical significance. […]

miR-19: miRNA of the 17˜92 cluster, UGUGCAAAUCCAUGCAAAACUGA (SEQ ID NO: 2); seed family in Table 3 (expressed or natural sequence; listed as Homo sapiens)
enrichment of miRNA/GFP-expressing FL5-12 cells over parental cells upon IL3 depletion (FL5-12 lymphocytes; competition experiment, FACS): rapidly enriched over parental cells upon IL3 depletion | IL-3 independence of FL5-12 cells (FL5-12 lymphocytes; retest of individual miRNAs from secondary library screen): confer IL-3 independence on FL5-12 cells | 3′UTR inhibition (RLuc/Luc) [1]: direct 3′ untranslated region (UTR) inhibition via the miR-19 binding sites | leukemia onset / leukemia-free survival (NOTCH1-induced T-ALL): rapidly succumbed to T-ALL | leukemia onset / leukemia-free survival (NOTCH1-induced T-ALL; listed as miR-19b): disease acceleration
